Experiment: Example 2: phase 3 trial, enavogliflozin 0.3 mg vs dapagliflozin 10 mg once a day for 24 weeks added to metformin in patients with type 2 diabetes (same efficacy, exploratory and safety endpoints)
Type: in vivo, human
Experimental: Subjects who met the inclusion/exclusion criteria were administered a placebo of the clinical trial drug under single-blind (subject blinding) conditions during a 2-week run-in period while continuing to receive metformin. […] The randomized subjects were administered two tablets of the clinical trial drug for each administration group once a day, and then visited the institution at weeks 6, 12, 18, and 24 during the 24-week administration period to conduct efficacy and safety evaluations.
• 1. Change in HbA1c at week 24 after administration of clinical trial drug compared to Visit 2 (randomization)
• 1. Change in HbA1c at each time point of weeks 6, 12, and 18 after administration of clinical trial drug compared to Visit 2 (randomization) • 2. Change in FPG at each time point of weeks 6, 12, 18, and 24 after administration of clinical trial drug compared to Visit 2 (randomization) • 3. Proportion of subjects achieving HbA1c<7% at each time point of weeks 6, 12, 18, and 24 after administration of clinical trial drug • 4. Proportion of subjects achieving HbA1c<6.5% at each time point of weeks 6, 12, 18, and 24 after administration of clinical trial drug • 5. Proportion of subjects achieving therapeutic response (HbA1c change (HbA1c at Visit 2-HbA1c at each evaluation time point)>0.5% or HbA1c<7% at each evaluation time point compared to Visit 2 (randomization)) at each time point of weeks 6, 12, 18 and 24 after administration of clinical trial drug
• 1. Change in fasting c-peptide at each time point of weeks 6, 12, 18, and 24 after administration of clinical trial drug compared to Visit 2 (randomization) • 2. Change in body weight at each time point of weeks 6, 12, 18, and 24 after administration of clinical trial drug compared to Visit 2 (randomization) • 3. Change in fasting lipid concentration (total cholesterol, LDL-C, HDL-C, and triglycerides) at each time point of weeks 6, 12, 18, and 24 after administration of clinical trial drug compared to Visit 2 (randomization) • 4. Changes in systolic or diastolic blood pressure at each time point of weeks 6, 12, 18, and 24 after administration of clinical trial drug compared to Visit 2 (randomization) • 5. Changes in β-cell function and insulin resistance measured by HOMA-β and HOMA-IR at each time point of weeks 6, 12, 18, and 24 after administration of clinical trial drug compared to Visit 2 (randomization) • 6. Changes in renal function-related indicators (UACR, UGCR) measured by UACR at each time point of weeks 6, 12, 18, and 24 after administration of clinical trial drug compared to Visit 2 (randomization) • 7. Changes in obesity-related indicators (adiponectin, leptin) at each time point of weeks 6, 12, 18, and 24 after administration of clinical trial drug compared to Visit 2 (randomization)

[1] = Week 24, mPPS1, enavogliflozin minus dapagliflozin
[2] = Week 24, mPPS2, enavogliflozin minus dapagliflozin
[3] = week 6, modified per-protocol set 1, enavogliflozin 0.3 mg, dapagliflozin 10 mg
[4] = week 6, per-protocol set, enavogliflozin 0.3 mg vs dapagliflozin 10 mg
[5] = week 6, per-protocol set, enavogliflozin 0.3 mg, dapagliflozin 10 mg

## OC[C@H]1O[C@@H](c2cc(Cc3ccc(C4CC4)cc3)c(Cl)c3c2CCO3)[C@H](O)[C@@H](O)[C@@H]1O [Enavogliflozin, (2S,3R,4R,5S,6R)-2-(7-chloro-6 (4-cyclopropylbenzyl)-2,3-dihydrobenzofuran-4-yl)-6-(hydroxymethyl)tetrahydro-2H-pyran-3,4,5-triol]
Week 24, mPPS1
  Triglycerides, Mean (SD): 119.62(58.93) mg/dL
  Triglycerides, Median: 104.00 mg/dL
[1]
  HDL-C change from baseline, LS mean difference: -0.14 mg/dL
  LDL-C change from baseline, LS mean difference: 0.71 mg/dL
  triglycerides change from baseline, LS mean difference: 1.63 mg/dL
Week 24, mPPS2
  Diastolic blood pressure change from baseline, ANCOVA LS mean (SE): −5.41 mmHg
  Diastolic blood pressure change from baseline, Mean (SD): −5.40 mmHg
  Diastolic blood pressure change from baseline, Median: −6.00 mmHg
  Diastolic blood pressure, Mean (SD): 71.65 mmHg
  Diastolic blood pressure, Median: 71.00 mmHg
  Systolic blood pressure change from baseline, ANCOVA LS mean (SE): −5.93(1.01) mmHg
  Systolic blood pressure change from baseline, Mean (SD): −6.34(9.75) mmHg
  Systolic blood pressure change from baseline, Median: −5.00 mmHg
  Systolic blood pressure, Mean (SD): 123.38(12.55) mmHg
  Systolic blood pressure, Median: 122.00 mmHg
[2]
  diastolic blood pressure change from baseline, LS mean difference: −1.15 mmHg
  systolic blood pressure change from baseline, LS mean difference: 0.63 mmHg
Week 6
  FPG change from baseline, LS mean (SE): −28.07(2.14) mg/dL
  HOMA-IR change from baseline, LS mean (SE): −1.47(0.14)
  HOMA-β change from baseline, LS mean (SE): 7.22(5.44)
  HbA1c change from baseline, LS mean (SE): −0.68(0.04) % p
  LDL-C change from baseline, LS mean (SE): −0.09(1.89) mg/dL
  Subjects achieving HbA1c target of <7%: (53.68) %
  Subjects achieving HbA1c<6.5%: 12.63%
  Subjects achieving therapeutic response (HbA1c change >0.5% or HbA1c<7%): 78.95%
  UACR change from baseline, LS mean (SE): −12.75(10.48) g/kg
  UGCR change from baseline, LS mean (SE): 65.72(2.70) mg/mg
  diastolic blood pressure change from baseline, LS mean (SE): −2.75(0.69) mmHg
  fasting c-peptide change from baseline, LS mean (SE): −0.07(0.02) ng/ml
  leptin change from baseline, LS mean (SE): −2.43(0.46) ng/mL
Week 6, vs dapagliflozin
  FPG change from baseline, LS mean difference: -4.27 mg/dL
  HDL-C change from baseline, LS mean difference: -0.49 mg/dL
  HOMA-IR change from baseline, LS mean difference: −0.16
  HOMA-β change from baseline, LS mean difference: 9.01
  HbA1c change from baseline, LS mean difference: −0.05 % p
  LDL-C change from baseline, LS mean difference: -4.29 mg/dL
  Odds ratio for achieving HbA1c<6.5%: 0.83
  Odds ratio for achieving HbA1c<7%: 1.06
  Odds ratio for achieving therapeutic response: 0.98
  UACR change from baseline, LS mean difference: −20.88
  UGCR change from baseline, LS mean difference: 15.62 mg/mg
  body weight change from baseline, LS mean difference: 0.04 kg
  diastolic blood pressure change from baseline, LS mean difference: −1.28 mmHg
  fasting c-peptide change from baseline, LS mean difference: 0.00 ng/mL
  leptin change from baseline, LS mean difference: -0.81 ng/mL
  systolic blood pressure change from baseline, LS mean difference: −0.58 mmHg
  total cholesterol change from baseline, LS mean difference: -2.10 mg/dL
  triglyceride change from baseline, LS mean difference: 18.76 mg/dL
Week 6, listed as enavogliflozin
  Subjects achieving HbA1c target of <7%: 53.68%
Week 6, modified per-protocol set 1, enavogliflozin 0.3 mg vs dapagliflozin 10 mg
  Change from baseline in total cholesterol, ANCOVA LS mean difference: -2.10 mg/dL
[3]
  Change from baseline in Total cholesterol, ANCOVA LS mean (SE): 4.77(2.19) mg/dL
  Change from baseline in Total cholesterol, Mean (SD): 4.34(17.75) mg/dL
  Change from baseline in total cholesterol, Median: 3.00 mg/dL
  fasting Total cholesterol, Mean (SD): 155.77(35.37) mg/dL
  fasting Total cholesterol, Median: 147.00 mg/dL
[4]
  Change from baseline in FPG, ANCOVA LS mean difference: -4.27 mg/dL
  Change from baseline in HbA1c, ANCOVA LS mean difference: −0.05 % p
  Change from baseline in body weight, ANCOVA LS mean difference: 0.04 kg
  Change from baseline in fasting c-peptide, ANCOVA LS mean difference: 0.00 ng/mL
  Odds ratio for achieving HbA1c target of <6.5%, logistic regression model: 0.83
  Odds ratio for achieving therapeutic glycemic response, logistic regression model: 0.98
[5]
  Change from baseline in FPG, ANCOVA LS mean (SE): -28.07 mg/dL
  Change from baseline in FPG, Mean (SD): -26.91 mg/dL
  Change from baseline in FPG, Median: -27.00 mg/dL
  Change from baseline in HbA1c, ANCOVA LS mean (SE): −0.68 % p
  Change from baseline in HbA1c, Mean (SD): −0.62 % p
  Change from baseline in HbA1c, Median: −0.57 % p
  Change from baseline in body weight, ANCOVA LS mean (SE): −1.56(0.20) kg
  Change from baseline in body weight, Mean (SD): −1.56(2.30) kg
  Change from baseline in body weight, Median: -1.70 kg

— patent US20260130933A1, “PHARMACEUTICAL COMPOSITION FOR PREVENTION OR TREATMENT OF NEPHROPATHY AND/OR DIABETES MELLITUS, COMPRISING ENAVOGLIFLOZIN” (DAEWOONG PHARMACEUTICAL CO., LTD., priority 2022, published 2026)
